Data: article PMC4621900, “Ebselen inhibits QSOX1 enzymatic activity and suppresses invasion of pancreatic and renal cancer cell lines” (Oncotarget, 2015)

Legend:
glucose oxidase (GOx) = glucose oxidase (GOx) (Aspergillus niger, UniProt P13006); test: luminescent (ROS-Glo) H2O2-detection enzyme assay, counter-screen; assay type: biochemical
[1] = biological target: T1, Quiescin sulfhydryl oxidase 1 (QSOX1) (Homo sapiens, UniProt O00391); test: intact-protein LC-ESI-MS of covalent adducts and maleimide protection assay; IC50 from purified-enzyme luminescent H2O2 assay, confirmed by HVA fluorescence assay; assay type: biochemical
T1 construct: amino acids 33–546 of QSOX1-S, N-terminal poly-histidine tag (rQSOX1)
T1 sequence (O00391 33-546): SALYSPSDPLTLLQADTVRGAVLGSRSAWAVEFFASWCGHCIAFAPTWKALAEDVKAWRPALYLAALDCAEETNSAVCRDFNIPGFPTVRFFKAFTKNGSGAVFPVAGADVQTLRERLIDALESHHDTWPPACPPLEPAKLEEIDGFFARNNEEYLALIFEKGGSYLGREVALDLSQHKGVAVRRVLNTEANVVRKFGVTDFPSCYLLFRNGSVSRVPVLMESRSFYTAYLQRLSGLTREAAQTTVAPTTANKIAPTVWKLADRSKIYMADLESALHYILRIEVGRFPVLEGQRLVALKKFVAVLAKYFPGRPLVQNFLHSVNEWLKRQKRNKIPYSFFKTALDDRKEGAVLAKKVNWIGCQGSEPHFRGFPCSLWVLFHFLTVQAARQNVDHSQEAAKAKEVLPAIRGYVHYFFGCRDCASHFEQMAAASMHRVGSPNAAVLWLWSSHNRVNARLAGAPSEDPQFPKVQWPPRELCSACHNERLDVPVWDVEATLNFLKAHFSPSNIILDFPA

Chain of glucose oxidase (GOx) (P13006 17-605): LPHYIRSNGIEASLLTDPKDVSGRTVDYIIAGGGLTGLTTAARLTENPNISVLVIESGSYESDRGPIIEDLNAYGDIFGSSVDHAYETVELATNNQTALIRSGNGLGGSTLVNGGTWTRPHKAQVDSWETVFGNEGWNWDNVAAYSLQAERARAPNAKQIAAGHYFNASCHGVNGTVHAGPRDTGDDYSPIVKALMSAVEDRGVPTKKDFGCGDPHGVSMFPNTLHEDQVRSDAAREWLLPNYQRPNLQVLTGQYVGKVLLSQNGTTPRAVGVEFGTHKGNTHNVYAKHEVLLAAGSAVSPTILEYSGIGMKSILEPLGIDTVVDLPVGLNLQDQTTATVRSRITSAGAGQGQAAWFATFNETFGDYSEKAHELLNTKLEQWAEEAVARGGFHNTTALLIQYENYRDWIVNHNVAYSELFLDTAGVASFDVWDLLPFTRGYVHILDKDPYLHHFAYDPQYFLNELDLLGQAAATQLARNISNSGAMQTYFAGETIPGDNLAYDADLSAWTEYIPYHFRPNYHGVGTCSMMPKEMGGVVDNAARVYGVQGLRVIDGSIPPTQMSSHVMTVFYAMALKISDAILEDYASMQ

Q: Which results are given for O=c1c2ccccc2[se]n1-c1ccccc1 [ebselen, 2-phenyl-1,2-benzisoselenazol-3(2H)-one]?
A: IC50 (glucose oxidase (GOx)): 20.5 µM; IC50 [1]: 5.4 µM
